Data reported in patent US20260060987A1, “METHODS AND COMPOSITIONS FOR RADIOPROTECTION AND MITIGATION OF RADIATION-INDUCED INJURY USING KINASE INHIBITORS” (Incyte Corporation, priority 2024, published 2026).
pIC50: −log10 of the molar value.

Target: PI3Kδ (Homo sapiens, UniProt O00329)
Test: PI3Kδ inhibition, IC50 at 1 mM ATP
Format: biochemical

Sequence of PI3Kδ (O00329 whole entry): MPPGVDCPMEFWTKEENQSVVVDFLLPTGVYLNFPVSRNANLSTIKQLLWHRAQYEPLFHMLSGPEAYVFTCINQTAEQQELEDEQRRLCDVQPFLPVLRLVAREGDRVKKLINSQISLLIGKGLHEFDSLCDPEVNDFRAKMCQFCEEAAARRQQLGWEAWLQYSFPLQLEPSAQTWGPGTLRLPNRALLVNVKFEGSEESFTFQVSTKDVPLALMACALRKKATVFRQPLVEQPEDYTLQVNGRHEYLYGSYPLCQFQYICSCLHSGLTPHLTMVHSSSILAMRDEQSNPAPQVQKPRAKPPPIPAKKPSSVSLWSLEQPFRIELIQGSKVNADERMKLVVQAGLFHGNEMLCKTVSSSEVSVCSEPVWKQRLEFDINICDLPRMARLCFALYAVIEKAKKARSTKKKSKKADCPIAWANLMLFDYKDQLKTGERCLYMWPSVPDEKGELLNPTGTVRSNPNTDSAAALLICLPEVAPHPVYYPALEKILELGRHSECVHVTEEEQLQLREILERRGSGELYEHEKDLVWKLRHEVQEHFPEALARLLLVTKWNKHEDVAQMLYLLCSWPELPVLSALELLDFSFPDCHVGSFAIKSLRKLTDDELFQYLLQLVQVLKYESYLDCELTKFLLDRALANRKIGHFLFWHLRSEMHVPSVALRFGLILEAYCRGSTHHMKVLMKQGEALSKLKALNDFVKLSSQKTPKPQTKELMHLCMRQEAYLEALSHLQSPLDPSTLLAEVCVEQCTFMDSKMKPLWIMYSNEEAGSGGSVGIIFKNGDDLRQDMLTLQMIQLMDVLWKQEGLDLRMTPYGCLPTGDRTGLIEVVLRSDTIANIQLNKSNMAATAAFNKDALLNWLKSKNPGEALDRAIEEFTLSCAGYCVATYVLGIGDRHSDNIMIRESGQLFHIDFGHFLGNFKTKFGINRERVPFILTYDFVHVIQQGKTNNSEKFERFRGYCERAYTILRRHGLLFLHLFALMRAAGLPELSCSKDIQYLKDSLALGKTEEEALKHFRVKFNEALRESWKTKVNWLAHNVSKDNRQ
Sequence of PI3Kδ (P27986 whole entry partner): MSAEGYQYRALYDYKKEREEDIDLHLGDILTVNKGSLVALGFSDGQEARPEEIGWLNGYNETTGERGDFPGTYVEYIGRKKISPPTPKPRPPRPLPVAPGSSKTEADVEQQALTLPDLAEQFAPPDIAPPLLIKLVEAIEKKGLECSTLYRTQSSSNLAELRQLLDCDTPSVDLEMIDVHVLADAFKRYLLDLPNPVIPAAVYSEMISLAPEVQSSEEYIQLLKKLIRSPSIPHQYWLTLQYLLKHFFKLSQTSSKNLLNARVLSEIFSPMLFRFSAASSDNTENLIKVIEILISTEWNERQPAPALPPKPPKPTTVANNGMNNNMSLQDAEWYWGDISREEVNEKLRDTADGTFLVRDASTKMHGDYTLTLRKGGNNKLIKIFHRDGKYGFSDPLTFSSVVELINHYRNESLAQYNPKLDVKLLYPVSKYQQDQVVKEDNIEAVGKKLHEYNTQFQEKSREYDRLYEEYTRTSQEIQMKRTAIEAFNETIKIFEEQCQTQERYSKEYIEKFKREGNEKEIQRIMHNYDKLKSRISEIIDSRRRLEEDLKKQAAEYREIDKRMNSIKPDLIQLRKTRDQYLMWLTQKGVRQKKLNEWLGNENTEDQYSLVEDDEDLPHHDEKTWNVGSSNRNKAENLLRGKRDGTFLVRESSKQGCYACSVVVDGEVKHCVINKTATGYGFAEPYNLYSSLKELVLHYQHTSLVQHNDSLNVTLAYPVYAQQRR

pIC50: 9.00
Structure (SMILES): CCOc1c([C@H](C)n2nc(C)c3c(N)ncnc32)cc(Cl)c(F)c1[C@@H]1CNC(=O)C1 [parsaclisib, (R)-4-(3-((S)-1-(4-amino-3-methyl-1H-pyrazolo[3,4-d]pyrimidin-1-yl)ethyl)-5-chloro-2-ethoxy-6-fluorophenyl) pyrrolidin-2-one]
